# Reference: US20160271028A1, “NOVEL USE OF PANDURATIN DERIVATIVES OR EXTRACT OF KAEMPFERIA PANDURATA COMPRISING THE SAME” (Newtree Co., Ltd., priority 2007, published 2016)
# Key:
# [1] = system: procollagen; assay: Procollagen synthesis in fibroblasts by Western blotting and RT-PCR; format: cell-based; settings: for expression of procollagen mRNAs: RT-PCR; for expression of procollagen proteins: Western blotting
# Method: (§1) MMP-1 inhibition activity and procollagen synthesis promotion effect of the Kaempferia pandurata ethanol extract prepared in Example 1 were measured by Western blotting and reverse transcriptase-polymerase chain reaction (RT-PCR).
# (§2) Specifically, proteins were extracted from cultured fibroblasts and quantitated using a protein assay reagent (Bio-Rad Laboratories Inc., Hercules, Calif., USA). For Western blotting, the proteins were heated for 3 minutes and, after cooling, transferred to a nitrocellulose membrane (Amersham International, Little Chalfont, England) through electrophoresis in 10% SDS-PAGE. The membrane was saturated with 5% skim milk in TBST (10 mM Tris, pH 7.5, 100 mM NaCl, 0.1% Tween 20). After blotting for 2 hours using primary antibodies (diluted to 1:1000), followed by washing with TBST, blotting was performed for 2 hours using secondary antibodies (diluted to 1:2000). After washing with TBST for 3 times, the blotted antibodies were analyzed using an ECL detection system (Amersham International, Little Chalfont, England).
# (§3) For RT-PCR, RNAs were isolated from fibroblasts using TRIZOL (Invitrogen, USA). The isolated RNAs were quantitated using MMP-1 and procollagen primers and Taq polymerase. Specifically, RT-PCR was carried out using MMP-1 primer for 25 cycles, each cycle consisting of 30 seconds at 94° C., 1 minute at 50° C. and 1 minute at 72° C. And RT-PCR was carried out using procollagen primer for 28 cycles, each cycle consisting of 30 seconds at 94° C., 1 minute at 60° C. and 1 minute at 72° C. Then, after electrophoresis using 1% agarose gel, expression of mRNA for MMP-1 and procollagen was analyzed through ethidium bromide (EtBr) illumination.
# (§4) MMP-1 inhibition activity and procollagen synthesis promotion effect of the panduratin derivatives prepared in Examples 2 through 4 were measured by Western blotting and RT-PCR in the same manner as Test Example 2-1.
# [2] = system: fibroblasts; assay: MTT assay, cell proliferation of fibroblasts; format: cell-based
# Method: MTT assay [3-(4,5-dimethylthiazol-2-yl)-2,5-diphenyltetrazolium bromide reduction method] was performed on fibroblasts to evaluate cell proliferation of the panduratin derivatives prepared in Examples 2 through 4. Epigallocatechin-3-O-gallate (EGCG), which is known to have skin wrinkle improvement effect, was selected as control substance.
# [3] = system: MMP-1; assay: MMP-1 expression in fibroblasts by Western blotting and RT-PCR; format: cell-based; settings: for expression of MMP-1 mRNAs: RT-PCR; for expression of MMP-1 proteins: Western blotting; for MMP-1 inhibition and procollagen promotion activity compared with the control substance EGCG: Western blotting and RT-PCR, covers MMP-1 and procollagen
# Method: as §1, §2, §3, §4
# [4] = system: Jun-N-terminal kinase (JNK); assay: UV-induced activation (phosphorylation) of JNK in fibroblasts, Western blotting; format: cell-based, Human; settings: CCD-986sk fibroblasts, UV 20 mJ/cm^2, 24 h pretreatment
# Method: (§5) Human skin fibroblasts (CCD-986sk, ATCC, Manassas, Va., USA) were cultured in DMEM (Gibco, Grand Island, N.Y., USA). The fibroblasts were cultured on a 10 cm Petri dish (SPL, Seoul, Korea) to a concentration of 80% and further cultured for 24 hours in serum-free culture medium. Then, the cells were cultured for 24 hours in serum-free DMEM containing the panduratin A of Example 2. After replacing the culture medium with 5 mL of phosphate-buffered saline (PBS), the cells were exposed to UV (20 mJ/cm^2). Cells that were not exposed to UV were used as negative control group, and cells treated with EGCG were used as positive control group.
# (§6) The fibroblasts were lysed in RIPA buffer (Sigma-Aldrich Co., St. Louis, Mo., USA) and proteins were quantitated using a protein assay reagent (Bio-Rad Laboratories Inc., Hercules, Calif., USA). […] After washing with TBST for 3 times, the blotted antibodies were analyzed using an ECL detection system (Amersham International, Little Chalfont, England). The detection level was measured using the software RFLPscan version 2.1.
# (§7) Through this procedure, the change of activity of extracellular-regulated protein kinase (ERK), Jun-N-terminal kinase (JNK) and p38 kinase, which belong to the MAPKs, was measured.
# [5] = system: p38 kinase; assay: UV-induced activation (phosphorylation) of p38 kinase in fibroblasts, Western blotting; format: cell-based, Human; settings: CCD-986sk fibroblasts, UV 20 mJ/cm^2, 24 h pretreatment
# Method: as §5, §6, §7
# [6] = system: c-Jun; assay: c-Jun activity in UV-exposed fibroblasts, Western blotting; format: cell-based, Human
# Method: as §5
# (§8) The fibroblasts were lysed in RIPA buffer (Sigma-Aldrich Co., St. Louis, Mo., USA) and proteins were quantitated using a protein assay reagent (Bio-Rad Laboratories Inc., Hercules, Calif., USA). For Western blotting, the proteins were heated for 3 minutes and, after cooling, transferred to a nitrocellulose membrane (Amersham International, Little Chalfont, England) through electrophoresis in 10% SDS-PAGE. The membrane was saturated with 5% skim milk in TBST (10 mM Tris, pH 7.5, 100 mM NaCl, 0.1% Tween 20). […] After washing with TBST for 3 times, the blotted antibodies were analyzed using an ECL detection system (Amersham International, Little Chalfont, England). The detection level was measured using the software RFLPscan version 2.1. […]
# [7] = system: hairless mice (Hos: HR-1); assay: Wrinkle improvement in UV-exposed hairless mice, application on skin; format: in vivo
# Method: Forty eight 6-week-old female hairless mice (Hos: HR-1) were accustomed for a week and randomly divided into 6 groups, 8 per each. The hairless mice (Hos:HR-1) were exposed to UV for 8 weeks. UV irradiation was carried out 3 times a week, from 1 MED (1 MED=50 mJ/cm^2) to 4 MED, until the end of the test. The 6 test groups were: non UV-treated group, UV-treated group, UV- and Kaempferia pandurata ethanol extract (0.1%, 0.5%)-treated group, and UV- and panduratin A (1 mM, 5 mM)-treated group. Each sample was dissolved in a mixture solvent of ethanol and polyethylene glycol (7:3, v/v) and 50 μL was applied on the back of the mice every day for 8 weeks. For the non UV-treated group and the UV-treated group, 50 μL of a mixture of ethanol and polyethylene glycol (7:3, v/v) was applied.
# In order to investigate wrinkle prevention effect, skin replicas were taken using silicone polymer (SILFLO Impression Material, Flexico, England). The image files of the skin replicas were subjected to wrinkle evaluation using the computer image analysis software Skin Visiometer SV 600 (Courage+Khazaha Electronic, Kln, Germany) Rt, Rm, Rz and Ra values (Rt: the distance from the highest and lowest portions on the skin surface, Rm: the maximum Rt value of 5 measurements, Rz: the mean Rt value of 5 measurements, Ra: the arithmetic mean surface roughness) were determined.
# [8] = system: c-Fos; assay: c-Fos activity in UV-exposed fibroblasts, Western blotting; format: cell-based, Human
# Method: as §5, §8
# [9] = system: AP-1; assay: Electrophoretic mobility shift assay (EMSA), DNA binding activity of AP-1; format: cell-based, Human; settings: nuclear proteins of UV-exposed fibroblasts
# Method: as §5
# Electrophoretic mobility shift assay (EMSA) was performed to measure the DNA binding activity of AP-1. Specifically, the fibroblasts, which were cultured in Test Example 3-1, to which panduratin A was added and which were exposed to UV, were washed with PBS and collected. […] Gel shift assay was carried out using quantitated nuclear proteins according to the manufacturer's instructions (Gel Shift Kit System; Panomics, Fremont, Calif., USA). Then, the detected proteins were analyzed with an ECL detection system (Amersham International, Little Chalfont, England) and the detection level was measured using the software RFLPscan version 2.1.
# DNA binding activity of AP-1 was determined through this procedure.
# [10] = system: extracellular-regulated protein kinase (ERK); assay: UV-induced activation (phosphorylation) of ERK in fibroblasts, Western blotting; format: cell-based, Human; settings: CCD-986sk fibroblasts, UV 20 mJ/cm^2, 24 h pretreatment
# Method: as §5, §6, §7
# [11] = application on skin, 8 weeks, p<0.05
compound,measurement,setting,value
"CC(C)=CC[C@@H]1C(C)=CC[C@@H](c2ccccc2)[C@@H]1C(=O)c1c(O)cc(O)cc1O [4-Hydroxypanduratin A, 4-hydroxypanduratin A]",expression of procollagen mRNAs,[1],increased in a concentration-dependent manner
same,expression of procollagen proteins,[1],increased in a concentration-dependent manner
same,Proliferation effect (%),[2]; 0.001 μM,101%
same,Proliferation effect (%),[2]; 0.01 μM,102%
same,Proliferation effect (%),[2]; 0.1 μM,109%
same,Proliferation effect (%),[2]; 1 μM,119%
same,Proliferation effect (%),[2]; 10 μM,121%
same,Proliferation effect (%),[2]; 50 μM,128%
same,expression of MMP-1 mRNAs,[3],decrease of MMP-1 proteins and mRNAs in a concentration-dependent manner
same,expression of MMP-1 proteins,[3],decrease of MMP-1 proteins and mRNAs in a concentration-dependent manner
same,MMP-1 inhibition and procollagen promotion activity compared with the control substance EGCG,[3],better activity than the control substance EGCG
"COc1cc(O)cc(O)c1C(=O)[C@@H]1[C@H](CC=C(C)C)C(C)=CC[C@H]1c1ccccc1 [Isopanduratin A, isopanduratin A]",expression of procollagen mRNAs,[1],increased in a concentration-dependent manner
same,expression of procollagen proteins,[1],increased in a concentration-dependent manner
same,Proliferation effect (%),[2]; 0.001 μM,102%
same,Proliferation effect (%),[2]; 0.01 μM,102%
same,Proliferation effect (%),[2]; 0.1 μM,110%
same,Proliferation effect (%),[2]; 1 μM,120%
same,Proliferation effect (%),[2]; 10 μM,124%
same,Proliferation effect (%),[2]; 50 μM,130%
same,expression of MMP-1 mRNAs,[3],decrease of MMP-1 proteins and mRNAs in a concentration-dependent manner
same,expression of MMP-1 proteins,[3],decrease of MMP-1 proteins and mRNAs in a concentration-dependent manner
same,MMP-1 inhibition and procollagen promotion activity compared with the control substance EGCG,[3],better activity than the control substance EGCG
"COc1cc(O)c(C(=O)[C@@H]2[C@H](CC=C(C)C)C(C)=CC[C@H]2c2ccccc2)c(O)c1 [Panduratin A, panduratin A]",expression of procollagen mRNAs,[1],increased in a concentration-dependent manner
same,expression of procollagen proteins,[1],increased in a concentration-dependent manner
same,Proliferation effect (%),[2]; 0.001 μM,103%
same,Proliferation effect (%),[2]; 0.01 μM,104%
same,Proliferation effect (%),[2]; 0.1 μM,111%
same,Proliferation effect (%),[2]; 1 μM,120%
same,Proliferation effect (%),[2]; 10 μM,126%
same,Proliferation effect (%),[2]; 50 μM,131%
same,activation of JNK,[4],suppressed in a concentration-dependent manner
same,activation of p38 kinase,[5],suppressed in a concentration-dependent manner
same,c-Jun activity,[6],inhibited c-Jun and c-Fos activity in a concentration-dependent manner
same,wrinkling (skin replicas) as compared to the UV-treated group,"[7]; 50 μL on the back daily for 8 weeks, extract 0.1% and 0.5%, panduratin A 1 mM and 5 mM",remarkably decreased wrinkling
same,Ra value (arithmetic mean surface roughness),[7]; [11],significantly decreased
same,Rm value (maximum Rt value of 5 measurements),[7]; [11],significantly decreased
same,Rt value (distance from the highest and lowest portions on the skin surface),[7]; [11],significantly decreased
same,Rz value (mean Rt value of 5 measurements),[7]; [11],significantly decreased
same,c-Fos activity,[8],inhibited c-Jun and c-Fos activity in a concentration-dependent manner
same,binding of AP-1 to DNA,[9],inhibited binding of AP-1 to DNA in a concentration-dependent manner
same,expression of MMP-1 mRNAs,[3],decrease of MMP-1 proteins and mRNAs in a concentration-dependent manner
same,expression of MMP-1 proteins,[3],decrease of MMP-1 proteins and mRNAs in a concentration-dependent manner
same,MMP-1 inhibition and procollagen promotion activity compared with the control substance EGCG,[3],better activity than the control substance EGCG
same,activation of ERK,[10],suppressed in a concentration-dependent manner
"Epigallocatechin-3-O-gallate [EGCG, reference compound]",Proliferation effect (%),[2]; 0.001 μM,102%
same,Proliferation effect (%),[2]; 0.01 μM,104%
same,Proliferation effect (%),[2]; 0.1 μM,107%
same,Proliferation effect (%),[2]; 1 μM,119%
same,Proliferation effect (%),[2]; 10 μM,120%
same,Proliferation effect (%),[2]; 50 μM,126%
